In BigSolDB 2.1:

COC(=O)[C@@H](N)Cc1c[nH]c2ccccc12.Cl
solubility (mole fraction)
Conditions | 283.2 K | 288.2 K | 293.2 K | 298.2 K | 303.2 K | 308.2 K | 313.2 K | 318.2 K | 323.2 K
in 2-butanone | 0.000254 | 0.000295 | 0.00034 | 0.000401 | 0.000495 | 0.00058 | 0.000748 | 0.001 | 0.00141
in acetone | 0.000289 | 0.000374 | 0.000489 | 0.000605 | 0.000793 | 0.00104 | 0.00144 | 0.00219 | 0.00343
in acetonitrile | 3.75e-05 | 4.38e-05 | 5.24e-05 | 6.55e-05 | 8.15e-05 | 0.000101 | 0.000123 | 0.000147 | 0.000183
in ethanol | 0.00608 | 0.00634 | 0.00683 | 0.00737 | 0.00812 | 0.00885 | 0.00966 | 0.0108 | 0.012
in ethyl acetate | 4.01e-05 | 4.86e-05 | 5.9e-05 | 7.36e-05 | 0.000101 | 0.000134 | 0.000174 | 0.000226 | 0.000296
in isobutanol | 0.00135 | 0.00142 | 0.0015 | 0.00172 | 0.00205 | 0.00245 | 0.00281 | 0.00326 | 0.00374
in isopropanol | 0.00109 | 0.00122 | 0.00135 | 0.00157 | 0.00176 | 0.00195 | 0.0022 | 0.00241 | 0.00273
in methanol | 0.0291 | 0.0301 | 0.0317 | 0.0334 | 0.0354 | 0.0379 | 0.0403 | 0.0437 | 0.0478
in n-butanol | 0.00221 | 0.00231 | 0.00247 | 0.00263 | 0.00281 | 0.00304 | 0.00327 | 0.0035 | 0.00385
in n-propanol | 0.00303 | 0.00322 | 0.00348 | 0.00376 | 0.00401 | 0.00431 | 0.00465 | 0.00512 | 0.00574
in sec-butanol | 0.0013 | 0.00135 | 0.00149 | 0.00165 | 0.00183 | 0.00206 | 0.00227 | 0.00251 | 0.00296
in water | 0.00839 | 0.00951 | 0.0107 | 0.0125 | 0.015 | 0.0175 | 0.02 | 0.024 | 0.0278
